Laboratory results from patent publication US9802960B2 (MILLENNIUM PHARMACEUTICALS, INC., priority 2014, dated 2017).

Key:
PC9 cell line = assay: Cellular assay for anti-proliferative activity in combination with a second therapeutic agent (Cell Titer Glo), PC9; type: cell-based, human; conditions: in combination with AZD9291, call from Combination Index
Method: Cells were plated in […] of media in 384 well plates at 1,000 cells per well (A431, PC9, and NCI-H1650 cell lines), 1,500 cells per well (NCI-H1975) or 2,000 cells per well ([…]). The plates were incubated for 24 hrs at 37° C., 6% CO2. The test compounds (see Table 38 below) were diluted serially, and 62.5 nL of each compound solution (or DMSO, if it is a single agent experiment) is added so the total added to the cells is 125 nL. Cell plates were incubated for 72 hrs at 37° C., 6% CO2. Cell Titer Glo reagent (Promega) was added. The plates were then incubated for 10 minutes at room temperature before luminescence was read on a plate reader such as the Pherastar Plus, Pherastar FS, or LEADSeeker imaging system.
Bliss antagonism was defined similarly.
Bliss dependence was defined as the percent cell survival at a certain dose combination divided by the percent cell survival predicted by Bliss independence. More specifically, the Bliss dependence is vAB/(vA*vB), where vAB is the viability with drug A and drug B added, while vA and vB are the viabilities with each drug alone. […]
Another way to evaluate additivity is through consideration of Loewe additivity. […] For Bliss independence, the boundary between additivity and synergy must be measured. […]
Synergy can also be measured by nonlinear blending synergy. […]

Human VPS34 = Human VPS34 (Homo sapiens (Human), UniProt Q8NEB9); assay: Human VPS34 enzyme assay (Adapta TR-FRET); type: biochemical; conditions: compound concentration 1.11 μM; for inhibition at 1.11 µM: read-out: Percent Inhibition
Sequence of Human VPS34 (Q8NEB9 whole entry): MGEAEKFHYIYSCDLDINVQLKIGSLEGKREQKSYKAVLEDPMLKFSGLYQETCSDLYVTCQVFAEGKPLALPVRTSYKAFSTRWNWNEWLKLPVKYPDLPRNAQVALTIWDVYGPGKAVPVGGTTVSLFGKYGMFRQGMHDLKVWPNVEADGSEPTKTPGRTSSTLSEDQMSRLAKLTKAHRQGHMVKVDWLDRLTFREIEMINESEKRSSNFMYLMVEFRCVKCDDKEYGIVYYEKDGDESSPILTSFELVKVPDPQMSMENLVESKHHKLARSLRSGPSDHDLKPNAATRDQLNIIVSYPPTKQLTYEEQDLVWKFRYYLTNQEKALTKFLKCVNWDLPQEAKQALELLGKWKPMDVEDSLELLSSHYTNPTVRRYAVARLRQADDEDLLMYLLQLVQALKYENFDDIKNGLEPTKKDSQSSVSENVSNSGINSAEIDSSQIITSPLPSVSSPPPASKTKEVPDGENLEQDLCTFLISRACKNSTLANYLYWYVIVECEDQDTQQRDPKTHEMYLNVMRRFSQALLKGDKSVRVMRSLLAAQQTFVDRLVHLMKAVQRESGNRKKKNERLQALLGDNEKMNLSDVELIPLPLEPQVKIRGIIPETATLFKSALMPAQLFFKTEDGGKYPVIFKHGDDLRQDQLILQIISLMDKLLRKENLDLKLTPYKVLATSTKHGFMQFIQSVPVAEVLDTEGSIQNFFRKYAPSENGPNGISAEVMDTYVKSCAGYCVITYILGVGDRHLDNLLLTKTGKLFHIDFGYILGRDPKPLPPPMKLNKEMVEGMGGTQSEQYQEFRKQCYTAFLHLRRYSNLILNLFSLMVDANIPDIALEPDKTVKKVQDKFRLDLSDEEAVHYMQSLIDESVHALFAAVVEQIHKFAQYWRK

| inhibition at 1.11 µM (Human VPS34) [%] | Percent Inhibition (Human VPS34) [%] | SMILES | Meaning (PC9 cell line) |
| --- | --- | --- | --- |
| > 99 |  | Cc1c(-c2ccnc(NC(=O)C3CC3)c2)cnc(Cl)c1NS(=O)(=O)c1ccc(F)cc1F [Compound I-308, N-(6-chloro-5-{[(2,4-difluorophenyl)sulfonyl]amino}-4-methyl-3,4′-bipyridin-2′-yl)cyclopropane carboxamide] | SubAdditivity |
| 100 |  | CC(=O)Nc1cc(-c2cnc(C)c(C(=O)N(C)c3ccc(F)cc3F)c2)ccn1 [Compound I-485, 2′-acetamido-N-(2,4-difluorophenyl)-N,6-dimethyl-3,4′-bipyridine-5-carboxamide] |  |
| 98 |  | CC(=O)Nc1cc(-c2cnc(N(C)C)c(S(=O)(=O)Nc3ccc(F)cc3F)c2)ccn1 [Compound I-491, N-{5-[(2,4-difluorophenyl)sulfamoyl]-6-(dimethylamino)-3,4′-bipyridin-2′-yl}acetamide] |  |
| 86 |  | CC(=O)Nc1cc(-c2cnc(C)c(OCC3CC3)c2)ccn1 [Compound I-492, N-[5-(cyclopropylmethoxy)-6-methyl-3,4′-bipyridin-2′-yl]acetamide] |  |
| 91 |  | CC(=O)Nc1cc(-c2cnc(C)c(NS(=O)(=O)N(C)c3ccccc3)c2)ccn1 [Compound I-494, N-(6-methyl-5-{[methyl(phenyl)sulfamoyl]amino}-3,4′-bipyridin-2′-yl)acetamide] |  |
| 83 |  | Cc1nccc(Nc2cc(-c3cnc(C)c(C(=O)N4CC(C)(C)C4)c3)ccn2)n1 [Compound I-495, (3,3-dimethylazetidin-1-yl){6-methyl-2′-[(2-methylpyrimidin-4-yl)amino]-3,4′-bipyridin-5-yl}methanone] |  |

Continued, compound first:

| SMILES | inhibition at 1.11 µM (Human VPS34) [%] | Percent Inhibition (Human VPS34) [%] | Meaning (PC9 cell line) |
| --- | --- | --- | --- |
| Cc1nccc(Nc2cc(-c3cnc(C)c(NC(=O)N4CC(F)(F)C4)c3)ccn2)n1 [Compound I-482, 3,3-difluoro-N-{6-methyl-2′-[(2-methylpyrimidin-4-yl)amino]-3,4′-bipyridin-5-yl}azetidine-1-carboxamide] | > 99 |  |  |
| CC(=O)Nc1cc(-c2cnc(C)c(NS(=O)(=O)N3CCC(C)(C)CC3)c2)ccn1 [Compound I-483, N-(5-{[(4,4-dimethylpiperidin-1-yl)sulfonyl]amino}-6-methyl-3,4′-bipyridin-2′-yl)acetamide] | > 99 |  |  |
| CC(=O)Nc1cc(-c2cnc3c(c2)S(=O)(=O)NCCO3)ccn1 [Compound I-484, N-(4-(1,1-dioxido-3,4-dihydro-2H-pyrido[2,3-b][1,4,5]oxathiazepin-8-yl)pyridin-2-yl)acetamide] | 92 |  |  |
| Cc1nccc(Nc2cc(-c3cc(NS(=O)(=O)c4ccc(F)cc4F)c4ccnn4c3)ccn2)n1 [Compound I-486, 2,4-difluoro-N-(6-{2-[(2-methylpyrimidin-4-yl)amino]pyridin-4-yl}pyrazolo[1,5-a]pyridin-4-yl)benzenesulfonamide] | 84 |  |  |
| CC(=O)Nc1cc(-c2cnc(N(C)C)c(S(=O)(=O)NC(C)(C)C)c2C)ccn1 [Compound I-487, N-[5-(tert-butylsulfamoyl)-6-(dimethylamino)-4-methyl-3,4′-bipyridin-2′-yl]acetamide] | 71 |  |  |
| CC(=O)Nc1cc(-c2cnc(Cl)c(NS(=O)(=O)N3CCCC3)c2C)ccn1 [Compound I-488, N-{6-chloro-4-methyl-5-[(pyrrolidin-1-ylsulfonyl)amino]-3,4′-bipyridin-2′-yl}acetamide] | > 99 |  |  |
| CC(=O)Nc1cc(-c2cnc(N)c(N3CCCNS3(=O)=O)c2)ccn1 [Compound I-490, N-[6-amino-5-(1,1-dioxido-1,2,6-thiadiazinan-2-yl)-3,4′-bipyridin-2′-yl]acetamide] | > 99 |  |  |
| CC(=O)Nc1cc(-c2cnc(Cl)c(NS(=O)(=O)c3cn(C)nc3C(F)(F)F)c2C)ccn1 [Compound I-493, N-[6-chloro-4-methyl-5-({[1-methyl-3-(trifluoromethyl)-1H-pyrazol-4-yl]sulfonyl}amino)-3,4′-bipyridin-2′-yl]acetamide] |  | 99 |  |
